The subject of experiment [1] is Ovarian 2393A tumor initiating cells. Kind of experiment: Tumor-initiating cell growth inhibition, Alamar Blue assay, ovarian TICs. It counts as cell-based. The conditions noted are these: 144 h; Ovarian 2393A TICs, 6 days; read-out: Tumor Initiating Cell GI50 Range Ovarian 2393A. The text has this: (§1) Non-tissue or tissue cultured treated T-75 flask and 96-well plates were purchased from VWR. Vitamin B-27 supplement, MEM NEAA (minimum essential medium non essential amino acids), sodium pyruvate, L-glutamine, N2 supplement, penicillin-streptomycin and fungizone/amphotericin B were obtained from Invitrogen. Lipid mixture, heparin and EGF were purchased from Sigma; bFGF from BD Biosciences. Tumor Initiating Cells (TICs) from colon were routinely maintained using non-tissue cultured treated T-75 flasks in DMEM:F12 medium containing 0.2XB-27 supplement, 4 ug/ml heparin, 1×MEM NEAA, 1×sodium pyruvate, 1 mM glutamine, 10 pg/ul bFGF, 20 pg/ul EGF, 1× N2 supplement, lipid mixture, penicillin-streptomycin and fungizone/amphotericin B. Ovarian TICs were routinely maintained using tissue cultured treated T-75 flasks in DMEM:F12 medium containing IXB-27 supplement, 4 ug/ml heparin, 20 pg/ul bFGF, 20 pg/ul EGF and penicillin-streptomycin.
(§2) Compounds described herein were dissolved in DMSO and further diluted in cell culture medium for GI50 determination. Colon TICs were trypsinized and seeded into non-tissue cultured treated 96-well plates with 4,000 cells/well. After 24 h, compound was added into the cell culture at different concentrations, and the final concentration of DMSO was adjusted to 0.1%. Cells were then cultured at 37° C. for 9 days. Ovarian TICs were trypsinized and seeded into tissue cultured treated 96-well plates with 1,000 cells/well. After 24 h, compound was added into the cell culture at different concentrations, and the final concentration of DMSO was adjusted to 0.1%. Cells were then cultured at 37° C. for 6 days. Cell viability was assessed by Alamar Blue assay: 10 ul of Alamar Blue was added into each well. After 4 hours incubation at 37° C., fluorescence was recorded at excitation 544 and emission 590. GI50 (Growth inhibition) was calculated using GraphPad Prism 4.0 software.
(§3) In Table 1 below, GI50 value ranges for compound examples against TICs (Colon 12 and Ovarian 2393A) are given.

Experiment [2] relates to colon cancer cells (HCT116). Kind of experiment: Cancer cell line growth inhibition, Sulforhodamine B assay, HCT116. The format is cell-based. The conditions noted are these: Homo sapiens, HCT-116, HCT116 colon cancer cell line; read-out: Cancer Cell Line GI50 Range HCT116. An outline of the steps:
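GI50 is calculated from growth inhibition relative to DMSO controls, using TCA-fixed, SRB-stained protein mass read at 570 nm. Compound, 10 nM–50 μM final in 10% FBS DMEM, was applied for 5 days to HCT116 cells that had been plated 24 h before at 1000–4000/well.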
For orientation: The SRB assay estimates cell density from bound dye.

The subject of experiment [3] is Colon 12 tumor initiating cells. The experiment can be described thus: Tumor-initiating cell growth inhibition, Alamar Blue assay, colon TICs. It counts as cell-based. The conditions noted are these: 216 h; Colon 12 TICs, 9 days; read-out: Tumor Initiating Cell GI50 Range Colon 12.
From the text: as §1, §2, §3
On the technique in general: Resazurin is reduced to fluorescent resorufin, in cell work by metabolically active cells.

For the next experiment, the target named is T1, human TTK (Homo sapiens, UniProt P33981).
T1 construct: Active TTK was purchased from Invitrogen as an amino terminal GST fusion of full length human TTK; purchased Invitrogen
T1 sequence (P33981 1-857): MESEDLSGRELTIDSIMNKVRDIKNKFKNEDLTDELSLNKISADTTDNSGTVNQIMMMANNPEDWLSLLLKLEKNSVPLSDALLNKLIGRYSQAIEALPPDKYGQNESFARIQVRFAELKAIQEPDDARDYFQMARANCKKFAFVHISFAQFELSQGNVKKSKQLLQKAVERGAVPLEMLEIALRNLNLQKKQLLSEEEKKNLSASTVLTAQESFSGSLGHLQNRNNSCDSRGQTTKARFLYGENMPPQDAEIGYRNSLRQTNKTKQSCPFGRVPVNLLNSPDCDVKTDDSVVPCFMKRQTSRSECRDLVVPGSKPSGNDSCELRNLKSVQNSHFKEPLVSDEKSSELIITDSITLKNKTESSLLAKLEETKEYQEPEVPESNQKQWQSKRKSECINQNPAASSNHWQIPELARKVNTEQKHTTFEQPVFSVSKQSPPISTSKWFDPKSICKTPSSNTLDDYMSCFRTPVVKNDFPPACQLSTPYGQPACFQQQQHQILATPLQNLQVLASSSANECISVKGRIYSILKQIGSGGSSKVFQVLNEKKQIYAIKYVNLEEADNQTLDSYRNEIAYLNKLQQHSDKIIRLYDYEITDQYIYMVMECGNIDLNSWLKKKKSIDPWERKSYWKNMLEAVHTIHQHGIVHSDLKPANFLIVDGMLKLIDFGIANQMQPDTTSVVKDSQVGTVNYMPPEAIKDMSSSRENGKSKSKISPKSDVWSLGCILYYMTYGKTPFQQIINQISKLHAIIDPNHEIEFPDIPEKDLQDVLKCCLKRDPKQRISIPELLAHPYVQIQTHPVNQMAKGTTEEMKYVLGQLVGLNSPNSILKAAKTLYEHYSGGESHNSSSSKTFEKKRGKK
Kind of experiment: TTK inhibition assay (indirect ELISA). The format is biochemical. In a few lines:
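Activity detected by indirect ELISA after compounds sat with full-length GST-TTK for 5 min prior to starting the reaction with ATP. IC50 came from a four-parameter logistic curve of % inhibition, calculated against background and uninhibited control wells.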
In general terms: ELISA stands for enzyme-linked immunosorbent assay.

Experiment [4] has as its system breast cancer cells (MDA-MB-468). Kind of experiment: Cancer cell line growth inhibition, Sulforhodamine B assay, MDA-MB-468. The format is cell-based. The note with it: Homo sapiens, MDA-MB-468, MDA-MB-468 breast cancer cell line; read-out: Cancer Cell Line GI50 Range MDA-MB-468. In a few lines: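 Sulforhodamine B staining (TCA-fixed, read at 570 nm) estimates cell mass after 5-day compound treatment of MDA-MB-468 cells, final concentrations 10 nM to 50 μM in 10% FBS DMEM. GI50 derived from growth inhibition versus DMSO controls.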

The test system of experiment [5] is ovarian cancer cells (OVCAR-3). Kind of experiment: Cancer cell line growth inhibition, Sulforhodamine B assay, OVCAR-3. It counts as cell-based. The note with it: Homo sapiens, OVCAR-3, OVCAR-3 ovarian cancer cell line; read-out: Cancer Cell Line GI50 Range OVCAR-3. In a few lines:
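OVCAR-3 cells were seeded 24 h before compound addition, then exposed for 5 days to final concentrations of 10 nM to 50 μM in DMEM with 10% FBS. Growth was measured by TCA fixation and sulforhodamine B staining with absorbance at 570 nm. Inhibition was relative to DMSO-only cells, and GI50 came from curve fitting.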

The mark [6] stands for this setting: 100 μM ATP, read-out: TTK IC50 Range.

Structures are written as SMILES. Like-named read-outs stand apart in the source and are kept apart here.

In the case of `Cc1cc(-c2cnn3c(NCC4CCOCC4)cc(N[C@H](CO)CC(C)C)nc23)ccc1C(=O)NC1CC1` [Example C130], the GI50 was no more than 100 nM in experiment [1]; no more than 100 nM in experiment [2]; no more than 100 nM in experiment [3]; 100 to 500 nM in experiment [4]; 100 to 500 nM in experiment [5]. The IC50 on human TTK (setting [6]) was less than 100 nM.
As to `Cc1cc(-c2cnn3c(NCCN4CCOCC4)cc(Oc4cccc(F)c4F)nc23)ccc1C(=O)NC1CC1` [Example C32, N-cyclopropyl-4-(5-(2,3-difluorophenoxy)-7-((2-morpholinoethyl)amino)pyrazolo[1,5-a]pyrimidin-3-yl)-2-methylbenzamide], the GI50 in experiment [1], in experiment [2], in experiment [3], in experiment [4] and in experiment [5] was no more than 100 nM in each case. The IC50 on human TTK (setting [6]) is less than 100 nM.
Regarding `Cc1cc(-c2cnn3c(NCC4CCOCC4)cc(N[C@@H](C(C)C)C(C)(C)O)nc23)ccc1C(=O)NC1CC1` [Example C40, (S)-N-cyclopropyl-4-(5-((2-hydroxy-2,4-dimethylpentan-3-yl)amino)-7-(((tetrahydro-2H-pyran-4-yl)methyl)amino)pyrazolo[1,5-a]pyrimidin-3-yl)-2-methylbenzamide], the GI50 was 100 to 500 nM in experiment [1]; no more than 100 nM in experiment [2]; no more than 100 nM in experiment [3]; no more than 100 nM in experiment [4]; 100 to 500 nM in experiment [5]. Besides, the IC50 at human TTK (setting [6]) was less than 100 nM.
For `Cc1cc(-c2cnn3c(NCC4CCOCC4)cc(OC4CCN(C5COC5)C4)nc23)ccc1C(=O)NC1CC1` (stereo not drawn) [Example C116], the 50% growth inhibitory concentration (GI50) is 100 to 500 nM in experiment [1]; no more than 100 nM in experiment [2]; 100 to 500 nM in experiment [3]; 100 to 500 nM in experiment [4]; 100 to 500 nM in experiment [5]. Further, the 50% inhibitory concentration (IC50) at human TTK (setting [6]) was less than 100 nM.
Take `Cc1cc(-c2cnn3c(NCC4(F)CCNCC4)cc(Oc4cccc(F)c4)nc23)ccc1C(=O)NC1CC1` [Example C146]: the GI50 is no more than 100 nM in experiment [1]; no more than 100 nM in experiment [2]; no more than 100 nM in experiment [3]; no more than 100 nM in experiment [4]; 100 to 500 nM in experiment [5]. In addition, the IC50 at human TTK (setting [6]) was less than 100 nM.
For the compound `O=C(NC1CC1)c1ccc(-c2cnn3c(NCC4CCOCC4)nc(Oc4ccccc4)nc23)cc1F` [Example C7], the GI50 in experiment [1] is 100 to 500 nM; in experiment [2], greater than 500 nM; in experiment [3], 100 to 500 nM; in experiment [4], greater than 500 nM; in experiment [5] it was greater than 500 nM. For the same compound, the IC50 on human TTK (16 μM ATP (Sigma cat# A7699), read-out: TTK IC50 Range (denoted with an asterisk)) is less than 100 nM.
Regarding `Cc1cc(-c2cnn3c(NCC4CCOCC4)cc(N[C@H]4CCN(C5COC5)C4)nc23)ccc1C(=O)NC1CC1` [Example C120], the GI50 in experiment [1] was greater than 500 nM; in experiment [2], 100 to 500 nM; in experiment [3], greater than 500 nM; in experiment [4] it was 100 to 500 nM; in experiment [5], greater than 500 nM. Further, the IC50 on human TTK (setting [6]) was less than 100 nM.
`Cc1cc(-c2cnn3c(NCC4COC4)cc(N[C@H]4CCCC[C@H]4O)nc23)ccc1C(=O)NC1CC1` [Example C37, N-cyclopropyl-4-(5-(((1S,2R)-2-hydroxycyclohexyl)amino)-7-((oxetan-3-ylmethyl)amino)pyrazolo[1,5-a]pyrimidin-3-yl)-2-methylbenzamide]: the GI50 in experiment [1], in experiment [2], in experiment [3], in experiment [4] and in experiment [5] was no more than 100 nM in each case. In addition, the IC50 on human TTK (setting [6]) was less than 100 nM.
Turning to `Cc1cc(-c2cnn3c(NC[C@H]4CC[C@@H](O)CC4)cc(Oc4cccnc4)nc23)ccc1C(=O)NC1CC1` [Example C176], the GI50 in experiment [1], in experiment [2], in experiment [3], in experiment [4] and in experiment [5] was no more than 100 nM throughout. Moreover, the half-inhibitory concentration (IC50) on human TTK (setting [6]) is less than 100 nM.
Take `Cc1cc(-c2cnn3c(NC[C@H]4C[C@H](O)C4)cc(Oc4cccnc4)nc23)ccc1C(=O)NC1CC1` [Example C144]: the concentration for 50% growth inhibition (GI50) in experiment [1], in experiment [2], in experiment [3], in experiment [4] and in experiment [5] was no more than 100 nM throughout. Also, the IC50 on human TTK (setting [6]) is less than 100 nM.

As a reminder, the GI50 is the concentration at which growth is held to half of that of the control. In general, IC50 refers to the concentration at which inhibition is half-maximal.

Source of the values: patent publication US9573954B2, “Pyrazolopyrimidine compounds” (University Health Network, priority 2012, dated 2017).
